Results: PMC10794144, “A novel antibiotic class targeting the lipopolysaccharide transporter” (Nature, 2024)
Converted amounts (≈) assume the structure as drawn. Like-named read-outs stand apart in the source and are kept apart here.

Tested on: A. baumannii
Assay: MIC, broth microdilution in CAMHB supplemented with human serum, read at 100% growth inhibition
Format: cell-based, Acinetobacter baumannii
Details: Acinetobacter baumannii, 20% HS, read-out: MIC
Description: MIC determinations were performed using the broth microdilution method and in line with CLSI guidelines M07 and M100 (refs. [37],[38]). Bacterial inocula were prepared by diluting a 0.5 McFarland suspension in CAMHB or lysogeny broth (LB) specifically for A. baylyi isolates. […] MIC values of all of the tested antibiotics were read as the lowest compound concentration inhibiting bacterial growth by naked eye or beyond which the OD600 ceased to decrease.

SMILES: CN1C(=O)[C@H](CCCCN)NC(=O)[C@H](CCCN)NCc2cccnc2Sc2cccc(-c3ccc(C(=O)O)cc3)c2CNC(=O)[C@@H]1Cc1c[nH]c2ccccc12 [zosurabalpin]
- MIC (ROB23377 (AdeS R108S)): 1 µg/mL (≈ 1.26 µM)
- MIC (ROB23380 (adeS ISAba1)): 8 µg/mL (≈ 10.1 µM)
- MIC (isolate 1061067): 0.25 µg/mL (≈ 0.316 µM)
- MIC (isolate 1061145): 0.125 µg/mL (≈ 0.158 µM)
- MIC (isolate 1065279): 0.25 µg/mL (≈ 0.316 µM)
- MIC (isolate 1065391): 0.25 µg/mL (≈ 0.316 µM)
- MIC (isolate 1065549): 0.06 µg/mL (≈ 0.0759 µM)
- MIC (isolate 1069554): 0.06 µg/mL (≈ 0.0759 µM)
- MIC (isolate 1072184): 0.25 µg/mL (≈ 0.316 µM)
- MIC (isolate 1089062): 0.125 µg/mL (≈ 0.158 µM)
- MIC (isolate 1089975): 0.125 µg/mL (≈ 0.158 µM)
- MIC (isolate 1093170): 0.25 µg/mL (≈ 0.316 µM)
- MIC (isolate 1098735): 1 µg/mL (≈ 1.26 µM)
- MIC (isolate 1104059): 1 µg/mL (≈ 1.26 µM)
- MIC (isolate 1104061): 0.25 µg/mL (≈ 0.316 µM)
- MIC (isolate 1104062): 0.25 µg/mL (≈ 0.316 µM)
- MIC (isolate 1115481): 0.06 µg/mL (≈ 0.0759 µM)
- MIC (isolate 1115495): 0.5 µg/mL (≈ 0.632 µM)
- MIC (isolate 1115510): 0.5 µg/mL (≈ 0.632 µM)
- MIC (isolate 1115514): 0.25 µg/mL (≈ 0.316 µM)
- MIC (isolate 1126813): 0.25 µg/mL (≈ 0.316 µM)
- MIC (isolate 1140100): 0.06 µg/mL (≈ 0.0759 µM)
- MIC (isolate 1154091): 1 µg/mL (≈ 1.26 µM)
- MIC (isolate 1161864): 0.016 µg/mL (≈ 0.0202 µM)
- MIC (isolate 1171976): 0.06 µg/mL (≈ 0.0759 µM)
- MIC (isolate 1172109): 0.016 µg/mL (≈ 0.0202 µM)
- MIC (isolate 1172126): 0.06 µg/mL (≈ 0.0759 µM)
- MIC (isolate 1630178): 0.25 µg/mL (≈ 0.316 µM)
- MIC (isolate 1630190): 1 µg/mL (≈ 1.26 µM)
- MIC (isolate 1630410): 0.25 µg/mL (≈ 0.316 µM)
- MIC (isolate 1631625): 0.06 µg/mL (≈ 0.0759 µM)
- MIC (isolate 1631735): 0.5 µg/mL (≈ 0.632 µM)
- MIC (isolate 1631846): 0.125 µg/mL (≈ 0.158 µM)
- MIC (isolate 1631847): 2 µg/mL (≈ 2.53 µM)
- MIC (isolate 1631848): 4 µg/mL (≈ 5.06 µM)
- MIC (isolate 1631849): 0.06 µg/mL (≈ 0.0759 µM)
- MIC (isolate 1631949): 0.5 µg/mL (≈ 0.632 µM)
- MIC (isolate 1631953): 0.5 µg/mL (≈ 0.632 µM)
- MIC (isolate 1631954): 0.25 µg/mL (≈ 0.316 µM)
- MIC (isolate 1631955): 0.06 µg/mL (≈ 0.0759 µM)
- MIC (isolate 1632073): 0.06 µg/mL (≈ 0.0759 µM)
- MIC (isolate 1632166): 0.25 µg/mL (≈ 0.316 µM)
- MIC (isolate 1632273): 0.25 µg/mL (≈ 0.316 µM)
- MIC (isolate 1633081): 0.25 µg/mL (≈ 0.316 µM)
- MIC (isolate 1633082): 0.5 µg/mL (≈ 0.632 µM)
- MIC (isolate 1633098): 0.25 µg/mL (≈ 0.316 µM)
- MIC (isolate 1633115): 0.25 µg/mL (≈ 0.316 µM)
- MIC (isolate 1633117): 1 µg/mL (≈ 1.26 µM)
- MIC (isolate 1633121): 0.5 µg/mL (≈ 0.632 µM)
- MIC (isolate 1633124): 1 µg/mL (≈ 1.26 µM)
- MIC (isolate 1633269): 2 µg/mL (≈ 2.53 µM)
- MIC (isolate 1633271): 1 µg/mL (≈ 1.26 µM)
- MIC (isolate 1633272): 1 µg/mL (≈ 1.26 µM)
- MIC (isolate 1728772): 0.25 µg/mL (≈ 0.316 µM)
- MIC (isolate 1728773): 0.5 µg/mL (≈ 0.632 µM)
- MIC (isolate 1728774): 0.25 µg/mL (≈ 0.316 µM)
